From patent US10662204B2 (PFIZER INC., priority 2018, dated 2020)

Tests used:
[1] = biological target: KRAS G12C (Homo sapiens, UniProt P01116, G12C); assay: Cell Activity Assay: accumulation of GDP-bound KRAS G12C in MIAPaCa-2 cells (Raf-1 RBD capture, MSD readout); type: cell-based; design: endogenous in cells; host or cells: MIAPaCa-2; details: 6 hours, assay limit is 30.00
Method in brief: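 IC50 came from a 4-parameter fit of Ras signal normalized between DMSO and full-inhibition controls. Readout: lysate GTP-Ras bound to immobilized Raf-1 RBD, quantified with pan-Ras antibody and MSD electrochemiluminescence. Lysates derived from MIAPaCa-2 cells treated 6 h with serially diluted compound, 0.3% DMSO.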

[2] = biological target: T1, GDP-loaded KRAS (1-169) G12C, C51S, C80L, C118S (Homo sapiens, UniProt P01116, C118S/C51S/C80L/G12C); assay: Mass Spectrometry Reactivity Assay (MSRA): covalent adduct of compound and KRAS G12C, Percent Modification; type: binding; details: for MSRA (% modification) 5.0 μM 0.017 hr / MSRA (% modification) 5.0 μM 0.25 hr: 5.0 μM compound; for MSRA (% modification) 10 μM 0.50 hr / MSRA (% modification) 10 μM 0.25 hr: 10 μM compound
T1 construct: GDP-loaded KRAS (1-169) G12C, C51S, C80L, C118S
Method in brief: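 Covalent labelling is measured by intact mass: deconvoluted modified and unmodified peak intensities yield percent modification. Compound, usually 5 μM or 10 μM final, reacts at room temperature with 5 μM GDP-bound KRAS G12C (1-169, C51S/C80L/C118S) in Hepes pH 7.5/NaCl/glycerol, sampled at 1, 15, 30, 60 min.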

IC50 [1] [µM] | MSRA (% modification) 5.0 μM 0.017 hr [2] [%] | MSRA (% modification) 10 μM 0.50 hr [2] [%] | MSRA (% modification) 5.0 μM 0.25 hr [2] [%] | MSRA (% modification) 10 μM 0.25 hr [2] [%] | Compound
0.195 | 35 | – | – | – | C=CC(=O)N1CCN(c2nc(O[C@@H]3CN(C)C[C@@H]3OC)nc3c(Oc4c(Cl)c(F)cc5[nH]ncc45)nc(Cl)cc23)CC1 (racemic) [Example 26G, rac-1-[4-(6-chloro-8-[(5-chloro-6-fluoro-1H-indazol-4-yl)oxy]-2-{[(3R,4S)-4-methoxy-1-methylpyrrolidin-3-yl]oxy}pyrido[3,4-d]pyrimidin-4-yl)piperazin-1-yl]prop-2-en-1-one]
27.8 | – | 20 | – | – | C=CC(=O)N1CCN(c2ncnc3c(Oc4c(C)ccc5[nH]ncc45)cc(C#N)cc23)CC1 [Example 14C]
0.414 | – | – | 54 | 68 | C=CC(=O)N1CCN(c2nc(OC[C@@H]3CCOC3)nc3c(Oc4c(Cl)c(F)cc5[nH]ncc45)nccc23)CC1 [Example 05H, 1-(4-{8-[(5-chloro-6-fluoro-1H-indazol-4-yl)oxy]-2-[(3R)-tetrahydrofuran-3-ylmethoxy]pyrido[3,4-d]pyrimidin-4-yl}piperazin-1-yl)prop-2-en-1-one]
0.008 | 83 | – | – | – | C#CCN1C[C@@H](OC)[C@H](Oc2nc(N3CCN(C(=O)C=C)CC3)c3cc(Cl)nc(Oc4c(Cl)c(F)cc5[nH]ncc45)c3n2)C1 [Example 40G, 1-[4-(6-chloro-8-[(5-chloro-6-fluoro-1H-indazol-4-yl)oxy]-2-{[(3R,4R)-4-methoxy-1-(prop-2-yn-1-yl)pyrrolidin-3-yl]oxy}pyrido[3,4-d]pyrimidin-4-yl)piperazin-1-yl]prop-2-en-1-one]
0.638 | – | – | 33 | – | C=CC(=O)N1CCN(c2nc(N3C[C@@](C)(O)[C@@H]3C)nc3c(Oc4c(Cl)c(F)cc5[nH]ncc45)nccc23)CC1 [Example 06J, 1-(4-{8-[(5-chloro-6-fluoro-1H-indazol-4-yl)oxy]-2-[(2S,3R)-3-hydroxy-2,3-dimethylazetidin-1-yl]pyrido[3,4-d]pyrimidin-4-yl}piperazin-1-yl)prop-2-en-1-one]
0.413 | – | – | – | 11 | C=CC(=O)N1CCN(c2nc(OC[C@@H]3CCCN3C)nc3c(Oc4c(Cl)c(F)cc5[nH]ncc45)cccc23)CC1 [Example 16E, 1-[4-(8-[(5-chloro-6-fluoro-1H-indazol-4-yl)oxy]-2-{[(2S)-1-methylpyrrolidin-2-yl]methoxy}quinazolin-4-yl)piperazin-1-yl]prop-2-en-1-one]
1.01 | – | 60 | 12 | – | C=CC(=O)N1CCN(c2ncnc3c(Oc4c(Cl)c(F)cc5[nH]ncc45)nccc23)CC1 [Example 02C, 1-(4-{8-[(5-chloro-6-fluoro-1H-indazol-4-yl)oxy]pyrido[3,4-d]pyrimidin-4-yl}piperazin-1-yl)prop-2-en-1-one]
0.169 | – | – | 57 | – | C=CC(=O)N1CCN(c2nc(OC[C@@H]3C[C@@H](F)CN3C)nc3c(Oc4c(Cl)c(F)cc5[nH]ncc45)nccc23)CC1 [Example 16H, 1-[4-(8-[(5-chloro-6-fluoro-1H-indazol-4-yl)oxy]-2-{[(2S,4R)-4-fluoro-1-methylpyrrolidin-2-yl]methoxy}pyrido[3,4-d]pyrimidin-4-yl)piperazin-1-yl]prop-2-en-1-one]
0.054 | – | – | – | 79 | C=CC(=O)N1CCN(c2nc(OC[C@@H]3C[C@H](F)CN3C)nc3c(Oc4c(C)c(Cl)cc5[nH]ncc45)nc(Cl)cc23)CC1 [Example 17G, 1-[4-(6-chloro-8-[(6-chloro-5-methyl-1H-indazol-4-yl)oxy]-2-{[(2S,4S)-4-fluoro-1-methylpyrrolidin-2-yl]methoxy}pyrido[3,4-d]pyrimidin-4-yl)piperazin-1-yl]prop-2-en-1-one]
6.07 | – | 65 | – | 53 | C=CC(=O)N1CCN(c2nc(OC[C@H]3CCC(=O)N3)nc3c(Oc4c(C)ccc5[nH]ncc45)cccc23)CC1 [Example 10F, (5R)-5-[({4-(4-acryloylpiperazin-1-yl)-8-[(5-methyl-1H-indazol-4-yl)oxy]quinazolin-2-yl}oxy)methyl]pyrrolidin-2-one]
4.26 | – | – | – | 64 | C=CC(=O)N1C[C@H](C)N(c2ncnc3c(Oc4c(Cl)c(F)cc5[nH]ncc45)nc(Cl)cc23)C[C@H]1C [Example 35A, 1-[(2R,5S)-4-{6-chloro-8-[(5-chloro-6-fluoro-1H-indazol-4-yl)oxy]pyrido[3,4-d]pyrimidin-4-yl}-2,5-dimethylpiperazin-1-yl]prop-2-en-1-one]
0.056 | – | 83 | 83 | 81 | C=CC(=O)N1CCN(c2nc(OC[C@@H]3CCCN3C)nc3c(Oc4c(C)c(Cl)cc5[nH]ncc45)cccc23)CC1 [Example 22E, 1-[4-(8-[(6-chloro-5-methyl-1H-indazol-4-yl)oxy]-2-{[(2S)-1-methylpyrrolidin-2-yl]methoxy}quinazolin-4-yl)piperazin-1-yl]prop-2-en-1-one]
0.016 | 44 | – | – | – | C=CC(=O)N1CCN(c2nc(O[C@@H]3CN(C)C[C@H]3C)nc3c(Oc4c(Cl)c(F)cc5[nH]ncc45)nc(Cl)cc23)CC1 (racemic) [Example 32G, rac-1-[4-(6-chloro-8-[(5-chloro-6-fluoro-1H-indazol-4-yl)oxy]-2-{[(3S,4R)-1,4-dimethylpyrrolidin-3-yl]oxy}pyrido[3,4-d]pyrimidin-4-yl)piperazin-1-yl]prop-2-en-1-one]
0.777 | – | – | 44 | – | C=CC(=O)N1CCN(c2nc(Oc3cccnc3)nc3c(Oc4c(Cl)c(F)cc5[nH]ncc45)nccc23)CC1 [Example 13I, 1-(4-{8-[(5-chloro-6-fluoro-1H-indazol-4-yl)oxy]-2-(pyridin-3-yloxy)pyrido [3,4-d]pyrimidin-4-yl}piperazin-1-yl)prop-2-en-1-one]
6.75 | – | 26 | – | – | C=CC(=O)N1CCN(c2ncnc3c(Oc4c(Cl)ccc5[nH]ncc45)nccc23)CC1 [Example 06A, 1-(4-{8-[(5-chloro-1H-indazol-4-yl)oxy]pyrido[3,4-d]pyrimidin-4-yl}piperazin-1-yl)prop-2-en-1-one]
0.197 | – | 83 | 76 | 80 | C=CC(=O)N1CCN(c2nc(OC[C@H]3CCCN3C)nc3c(Oc4c(Cl)c(F)cc5[nH]ncc45)nccc23)CC1 [Example 17E, 1-[4-(8-[(5-chloro-6-fluoro-1H-indazol-4-yl)oxy]-2-{[(2R)-1-methylpyrrolidin-2-yl]methoxy}pyrido[3,4-d]pyrimidin-4-yl)piperazin-1-yl]prop-2-en-1-one]
2.41 | – | 29 | – | – | C=CC(=O)N1CCN(c2nc(N3CC(N(C)C)C3)nc3c(Oc4c(Cl)c(C)cc5[nH]ncc45)nc(C)cc23)CC1 [Example 01E, 1-(4-{8-[(5-Chloro-6-methyl-1H-indazol-4-yl)oxy]-2-[3-(dimethylamino)azetidin-1-yl]-6-methylpyrido[3,4-d]pyrimidin-4-yl}piperazin-1-yl)prop-2-en-1-one]
